ChEMBL document CHEMBL1152303, “Synthesis and biological evaluation of a series of liver-selective phosphonic acid thyroid hormone receptor agonists and their prodrugs” (J Med Chem, 2008)

Tests used:
[1] = molecular target: T1, Thyroid hormone receptor alpha (Homo sapiens, UniProt P10827)
T1 sequence (P10827 whole entry): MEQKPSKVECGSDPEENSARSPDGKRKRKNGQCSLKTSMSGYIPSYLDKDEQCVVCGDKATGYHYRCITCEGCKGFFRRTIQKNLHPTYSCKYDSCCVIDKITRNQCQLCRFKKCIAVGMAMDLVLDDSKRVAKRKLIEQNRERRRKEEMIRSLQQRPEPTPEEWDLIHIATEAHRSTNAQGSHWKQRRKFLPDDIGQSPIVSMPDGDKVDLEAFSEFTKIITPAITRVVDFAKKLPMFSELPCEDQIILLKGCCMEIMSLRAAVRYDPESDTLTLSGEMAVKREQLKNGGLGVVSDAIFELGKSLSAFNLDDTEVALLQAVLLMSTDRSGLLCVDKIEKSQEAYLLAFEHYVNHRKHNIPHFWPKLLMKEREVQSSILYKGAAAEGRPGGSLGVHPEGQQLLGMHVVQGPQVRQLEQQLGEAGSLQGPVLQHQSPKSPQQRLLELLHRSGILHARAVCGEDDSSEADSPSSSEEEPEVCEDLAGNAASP
Description: Displacement of [125I]3,5,3'-triiodo-L-thyronine from His-tagged human recombinant TRalpha1 by scintillation proximity assay

[2] = molecular target: T2, Thyroid hormone receptor beta (Homo sapiens, UniProt P10828)
T2 sequence (P10828 whole entry): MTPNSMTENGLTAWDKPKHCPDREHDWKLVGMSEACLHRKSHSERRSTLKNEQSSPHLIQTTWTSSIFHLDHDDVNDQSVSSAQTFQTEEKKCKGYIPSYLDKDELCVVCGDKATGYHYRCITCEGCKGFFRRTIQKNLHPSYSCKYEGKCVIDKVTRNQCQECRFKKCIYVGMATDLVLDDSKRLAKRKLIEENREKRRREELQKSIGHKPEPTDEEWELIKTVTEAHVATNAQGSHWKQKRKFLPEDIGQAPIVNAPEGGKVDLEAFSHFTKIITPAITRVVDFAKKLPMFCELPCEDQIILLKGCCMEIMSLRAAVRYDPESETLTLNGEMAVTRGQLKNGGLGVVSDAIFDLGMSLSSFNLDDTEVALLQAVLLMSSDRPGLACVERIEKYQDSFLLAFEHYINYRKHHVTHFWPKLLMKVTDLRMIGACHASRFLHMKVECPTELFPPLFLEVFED
Description: Displacement of [125I]3,5,3'-triiodo-L-thyronine His-tagged human recombinant TRbeta1 by scintillation proximity assay

[3] = system: Rattus norvegicus; experiment: Reduction in total plasma cholesterol level in cholesterol-fed Sprague-Dawley rat at 0.5 mg/kg, po after 24 hrs; format: functional; set-up: scale not given: the % may be the effect or the level left
[4] = system: Rattus norvegicus; experiment: Reduction in total plasma cholesterol level in cholesterol-fed orally dosed Sprague-Dawley rat after 24 hrs; format: functional; settings: po
[5] = Metabolic stability in human liver S9 fraction assessed as activation rate at 100 uM after 1 hr; format: ADME, subcellular; settings: s9, 1 h
[6] = Metabolic stability in human S9 liver fraction assessed as monoacid levels at 100 uM after 1 hr; format: ADME, subcellular; settings: s9, 1 h
[7] = Metabolic stability in human S9 liver fraction assessed as prodrug remaining at 100 uM after 1 hr; format: ADME, subcellular; settings: s9, 1 h
[8] = system: Rattus norvegicus; experiment: Reduction in total plasma cholesterol level in cholesterol-fed orally dosed Sprague-Dawley rat after 24 hrs relative to control; format: functional; set-up: scale not given: the % may be the effect or the level left
[9] = system: Rattus norvegicus; experiment: Agonist activity at thyroid hormone receptor in Sprague-Dawley rat assessed as liver mGPDH activity at 1 mg/kg administered through osmotic pump infusion per ug protein; format: functional
[10] = system: Rattus norvegicus; experiment: Agonist activity at thyroid hormone receptor in Sprague-Dawley rat assessed as heart mGPDH activity at 1 mg/kg administered through osmotic pump infusion per ug protein; format: functional
[11] = system: Rattus norvegicus; experiment: Reduction in total plasma cholesterol level in cholesterol-fed Sprague-Dawley rat at 0.2 mg/kg, ip after 24 hrs; format: functional; set-up: scale not given: the % may be the effect or the level left; settings: route intraperitoneal

Compound `Cc1cc(NC(=O)C(=O)O)cc(C)c1Oc1ccc(O)c(C(C)C)c1` has a Ki [1] of 0.51 nM and a Ki [2] of 0.47 nM.

Compound `CCOC(=O)OCOP(=O)(COc1cc(C)c(Cc2ccc(O)c(C(C)C)c2)c(C)c1)OCOC(=O)OCC` has an Activity [3] of 24%.

With `Cc1cc(OCP(=O)(OCOC(=O)C(C)(C)C)OCOC(=O)C(C)(C)C)cc(C)c1Cc1ccc(O)c(C(C)C)c1` the Activity [3] was 33%, the ED50 [4] was 0.7 mg/kg and the Stability [5] was 134 pmol/min/mg. The Stability [6] was 79%, the Stability [7] was 11% and the Activity [8] was 46%.

In the case of `Cc1cc(OC[P@@]2(=O)OCC[C@@H](c3ccncc3)O2)cc(C)c1Cc1ccc(O)c(C(C)C)c1` (relative stereo), the Activity [3] is reported as 29%.

Compound `O=P(O)(O)Cc1cc(I)c(Oc2ccc(O)c(I)c2)c(I)c1` has an Activity [9] of 5.38 U/min and an Activity [10] of 1.74 U/min.

In the case of `CCC(C)c1cc(Cc2c(C)cc(OCP(=O)(O)O)cc2C)ccc1O` (stereo not drawn), the Activity [11] is reported as 20.1% and the Ki [1] is reported as 30.5 nM.

`Cc1cc(OCC(=O)O)cc(C)c1Cc1ccc(O)c(C(C)C)c1` [SOBETIROME] showed an Activity [9] of 7.88 U/min and an Activity [10] of 4.08 U/min.

For `COc1cc(OCP(=O)(O)O)cc(OC)c1Cc1ccc(O)c(C(C)C)c1`, the Ki [1] was 3300 nM.

With `CC(C)c1cc(Oc2c(Br)cc(CCP(=O)(O)O)cc2Br)ccc1O` the Activity [11] was 34.5%, the Ki [1] was 42.1 nM and the Ki [2] was 2.5 nM.

For `CC(C)c1cc(Oc2c(I)cc(CP(=O)(O)O)cc2I)ccc1O`, the Activity [11] was 39.4%.

`CCc1cc(Cc2c(C)cc(OCP(=O)(O)O)cc2C)ccc1O` gave an Activity [11] of 7.5%.

With `Cc1cc(OCP(=O)(O)O)cc(C)c1Cc1ccc(O)c(C(C)C)c1` [MB07344] the Activity [9] was 7.37 U/min, the Activity [10] was 1.66 U/min and the Activity [11] was 37.2%. For the same compound, the Ki [2] was 2.95 nM.

`Cc1cc(OC[P@@]2(=O)OCC[C@@H](c3cccnc3)O2)cc(C)c1Cc1ccc(O)c(C(C)C)c1` (relative stereo) gave an Activity [3] of 39%.

In the case of `Cc1cc(OCP(=O)(O)O)cc(C)c1Oc1ccc(O)c(C(C)C)c1`, the Ki [1] is reported as 183 nM and the Ki [2] is reported as 25.4 nM.

In the case of `N[C@@H](Cc1cc(I)c(Oc2ccc(O)c(I)c2)c(I)c1)C(=O)O` [LIOTHYRONINE], the Activity [9] is reported as 7.52 U/min and the Activity [10] is reported as 4.18 U/min.

Compound `CC(=O)SCCOP(=O)(COc1cc(C)c(Cc2ccc(O)c(C(C)C)c2)c(C)c1)OCCSC(C)=O` has an Activity [3] of 20%.

`CC(C)c1cc(Oc2c(I)cc(OCP(=O)(O)O)cc2I)ccc1O` gave an Activity [11] of 44.7%.
